Measurements: publication PMC10041537, “Molecular origins of mutational spectra produced by the environmental carcinogen N-nitrosodimethylamine and SN1 chemotherapeutic agents” (NAR Cancer, 2023)
Values joined by “and” are separate entries in the source; they are usually repeats but may differ in a detail not shown here. Equal entries are not always repeated.

Legend:
gpt reporter gene [1] = format: in vivo, RaDR^R/R;gpt^g/g;Mgmt^−/− mice; conditions: liver, NDMA-treated Mgmt−/− vs NDMA-treated WT
Method: (§1) Most experiments utilized C57BL/6J gptΔ transgenic mice ([49],[50]), a gift from T. Nohmi. Some experiments used RaDR^R/R;gpt^g/g;Mgmt^−/− mice, which were created by crossing RaDR^R/R;gpt^g/gmice ([37]) with Mgmt^−/− mice ([51]). NDMA was synthesized and characterized as previously described ([52]) (Fig. S1). […] The first dose (3.5 mg/kg in 10 μl) was administered at 8 days of age, and the second dose (7 mg/kg in 20 μl) was administered at 15 days of age. Vehicle treated mice were administered equivalent volumes of saline. Mice were euthanized at ten weeks post-injection by CO2 inhalation. Both male and female mice were used in all experimental groups (n = 5) in all mouse experiments.
The gptΔ assay is the technology traditionally used with the gptΔ mouse to probe for small mutations in the 459 bp gpt transgene, of which approximately 160 copies exist in the mouse diploid genome ([50]). […]
The λ-EG10 phage was packaged in vitro from genomic DNA using a Transpack packaging extract (Agilent Technologies) and then transfected into E. coli YG6020 expressing Cre-recombinase, generating a 6.4 kb plasmid carrying the gpt and chloramphenicol acetyltransferase genes. […] The mutant frequency of each group was calculated (ratio of total 6-TG-resistant colonies to the average of chloramphenicol resistant colonies). The samples were processed and analyzed in a blinded fashion. […]

gpt reporter gene [2] = format: in vivo, C57BL/6J gptΔ transgenic mice
Method: as §1
The gptΔ assay is the technology traditionally used with the gptΔ mouse to probe for small mutations in the 459 bp gpt transgene, of which approximately 160 copies exist in the mouse diploid genome ([50]). The gpt gene, which is not expressed in the mammalian cells, is contained in a λ-EG10 viral cassette that can be recovered ex vivo through a lambda packaging reaction.
The λ-EG10 phage was packaged in vitro from genomic DNA using a Transpack packaging extract (Agilent Technologies) and then transfected into E. coli YG6020 expressing Cre-recombinase, generating a 6.4 kb plasmid carrying the gpt and chloramphenicol acetyltransferase genes. These bacteria were cultured on selective media containing chloramphenicol (25 μg/ml, Sigma-Aldrich) and 6-TG (25 μg/ml, Sigma-Aldrich) or chloramphenicol alone. 6-TG resistance was confirmed by regrowth of colonies on plates containing chloramphenicol and 6-TG. The mutant frequency of each group was calculated (ratio of total 6-TG-resistant colonies to the average of chloramphenicol resistant colonies). The samples were processed and analyzed in a blinded fashion.
In this study, the gptΔ assay was performed on several tissues isolated from the mouse experiments. Specifically, the liver, kidneys, and lungs were collected at ten weeks following the second NDMA injection, flash frozen in liquid nitrogen, and stored at −80°C until analysis. Genomic DNA was extracted from ∼25 mg of liver tissue, one kidney, and whole lungs using the RecoverEase DNA Isolation Kit (Agilent Technologies).

liver, kidney, lung = experiment: Body and organ weights, macroscopic and histological analysis 10 weeks post NDMA treatment; format: in vivo, gptΔ C57BL/6J mice
Method: as §1
Sections of kidney and liver from mice ten weeks post treatment were fixed in 10% buffered formalin, embedded in paraffin, and sectioned at 5 μm thickness, stained with hematoxylin and eosin (H&E) by the MIT Division of Comparative Medicine Comparative Pathology Laboratory. H&E-stained sections of liver and kidney were scored by a Board-certified veterinary pathologist blinded to sample identity. Sections of liver were evaluated for the presence of hepatocellular degeneration (cell swelling with cytoplasmic alteration), fibrosis, and lipidosis using distribution-based ordinal scoring: 0 = normal, 1, uncommon detection in < 5% of liver fields (200×); 2, detectable in up to 5–20% of liver fields; 3, detectable in up to 20–65% of liver fields; 4, detectable in >65% of liver fields. The following criteria were used for scoring hepatic inflammation, necrosis, nuclear enlargement (karyomegaly), extramedullary hematopoiesis, Kupffer cell hyperplasia, Ito cell hyperplasia, and bile duct hyperplasia: 0 = normal; 1 = minimal (1–5 foci), 2 = mild (6–12 foci), 3 = moderate (13–18 foci), 4 = severe (>18 foci) (adapted from ([54])). A total inflammation score for each liver was generated by combining individual scores of portal, midzonal, and centrilobular inflammation from each submitted section. Sections of kidney were evaluated for the presence of inflammation, glomerulonephropathy, tubular necrosis, tubular degeneration, tubular regeneration, tubular casts and interstitial fibrosis. Slides were examined using an Olympus BX41 microscope attached with an iKona digital camera and photographed.

## CN(C)N=O [NDMA, N-nitrosodimethylamine]
Gpt reporter gene [1]; females
  enhanced mutant frequency in Mgmt−/− vs wild-type mice, females: 3 fold
Gpt reporter gene [1]; males
  enhanced mutant frequency in Mgmt−/− vs wild-type mice, males: 4 fold
Gpt reporter gene [2]; kidney, 10 weeks after neonatal NDMA 10.5 mg/kg total i.p., vs controls
  elevated mutation frequency, kidney: ~2 fold
Gpt reporter gene [2]; kidneys vs controls, only males significantly increased (P = 0.0079)
  change in mutant frequencies, kidney, males and females: approximate doubling
Gpt reporter gene [2]; liver, 10 weeks after neonatal NDMA 10.5 mg/kg total i.p., vs controls
  elevated mutation frequency, liver: ~35 fold
Gpt reporter gene [2]; livers of females vs controls, 10 weeks post-exposure, P = 0.0079
  increase in mutant frequency, liver, females: ~45 fold
Gpt reporter gene [2]; livers of males vs controls, 10 weeks post-exposure, P = 0.0079
  increase in mutant frequency, liver, males: ~30 fold
Gpt reporter gene [2]; lung, 10 weeks after neonatal NDMA 10.5 mg/kg total i.p., vs controls
  elevated mutation frequency, lung: ~4 fold and > 4 fold
liver, kidney, lung; 10 weeks post treatment
  macroscopic changes in organs: not observed
liver, kidney, lung; H&E, P = 0.0079
  liver histology: hepatocellular degeneration: multifocal areas of periacinar (centrilobular to midzonal) hepatocellular degeneration
  liver histology: nuclear enlargement: karyomegaly
liver, kidney, lung; at euthanasia, 10 weeks post treatment
  body weights vs vehicle controls: no difference
liver, kidney, lung; females
  lung-to-body weight ratio: increased
liver, kidney, lung; males
  kidney-to-body weight ratio: increased
  liver-to-body weight ratio: decreased significantly
